The text below walks through data of US12528814B2, “Bifunctional degraders of interleukin-1 receptor-associated kinases and therapeutic use thereof” (NURIX THERAPEUTICS, INC., priority 2020, dated 2026).

Usually pIC50 stands for the IC50 on a negative log10 scale, so that one unit is a factor of ten. As a reminder, the Dmax is the greatest extent of degradation seen. As a reminder, the DC50 is the concentration at which degradation of the target reaches its halfway point.

pIC50: −log10 of the molar value. Read-outs that look alike come from different tables or passages of the source.

The target of test [1] is T1, IRAK4 (Homo sapiens (Human), UniProt Q9NWZ3). The experiment in a line: IRAK4 Biochemical HTRF Kinase Assay. The note with it: read-out: IRAK4 HTRF biochemical: IC50. An outline of the steps:
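HTRF KinEASE STK S1 format measuring IRAK4 phosphorylation of biotinylated peptide; reaction solution of 5 μM STK-S1, 10 mM ATP, 10 mM MgCl2 added (stock, to 10 μl final), 90 min at ambient temperature, detection 60 min. IC50 from sixteen-point duplicate curves by non-linear regression.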
(Time-resolved FRET reads energy transfer from a long-lived donor to a nearby acceptor.)
Target sequence in this assay (Q9NWZ3 whole entry, species assumed): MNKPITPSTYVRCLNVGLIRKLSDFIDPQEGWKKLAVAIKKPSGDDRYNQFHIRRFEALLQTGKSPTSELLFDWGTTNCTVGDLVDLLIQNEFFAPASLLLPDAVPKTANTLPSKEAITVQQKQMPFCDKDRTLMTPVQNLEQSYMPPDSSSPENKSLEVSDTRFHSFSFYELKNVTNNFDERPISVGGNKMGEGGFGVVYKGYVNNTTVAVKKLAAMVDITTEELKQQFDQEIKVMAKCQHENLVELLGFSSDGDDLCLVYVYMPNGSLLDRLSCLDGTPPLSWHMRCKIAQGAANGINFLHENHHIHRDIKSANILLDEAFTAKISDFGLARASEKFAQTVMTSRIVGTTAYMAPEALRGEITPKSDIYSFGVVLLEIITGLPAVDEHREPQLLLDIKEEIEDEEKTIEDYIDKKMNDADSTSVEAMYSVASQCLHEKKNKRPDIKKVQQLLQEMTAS

Test [2] has as its target T1, IRAK4. In words: IRAK4 Degradation HiBiT Assay. The note with it: HiBiT-tagged Jurkat cells, 4 hrs; for Dmax: Jurkat; for DC50: read-out: Cellular IRAK4 HiBiT: DC50. (In general: With HiBiT, luminescence reflects the tagged protein that the partner subunit can reach.)
Target sequence in this assay (Q9NWZ3 whole entry): as the sequence (Q9NWZ3 whole entry, species assumed) above
The mark [3] stands for this setting: read-out: Cellular IRAK4 HiBiT: Dmax, Table 4.
[4] abbreviates: read-out: Cellular IRAK4 HiBiT: Dmax, Table 5, multiple runs.

`CNc1cc(-c2ccc3cc(C#N)cnn23)ncc1-c1nnc([C@H]2CC[C@H](NC(=O)CCCCCCCNc3ccc4c(c3)C(=O)N(C3CCC(=O)NC3=O)C4=O)CC2)s1` (stereo partly drawn) [Example 67, N-((1r,4r)-4-(5-(6-(3-cyanopyrrolo[1,2-b]pyridazin-7-yl)-4-(methylamino)pyridin-3-yl)-1,3,4-thiadiazol-2-yl)cyclohexyl)-8-((2-(2,6-dioxopiperidin-3-yl)-1,3-dioxoisoindolin-5-yl)amino)octanamide]: the pIC50 on IRAK4 [1] (Table 4) is 8.79; at IRAK4 [1] (Table 5, multiple runs) it was 8.74. The Dmax on IRAK4 [2] (setting [3]) was determined as 53%; at IRAK4 [2] (setting [4]), 86%. For the same compound, the DC50 on IRAK4 [2] (Table 4) was found to be 10.4 nM; on IRAK4 [2] (Table 5, multiple runs), 45.7 nM.
On to `CNc1cc(-c2ccc3cc(C#N)cnn23)ncc1-c1nnc([C@H]2CC[C@H](NC(=O)CCCCCNc3ccc4c(c3)C(=O)N(C3CCC(=O)NC3=O)C4=O)CC2)s1` (stereo partly drawn) [Example 68, N-((1r,4r)-4-(5-(6-(3-cyanopyrrolo[1,2-b]pyridazin-7-yl)-4-(methylamino)pyridin-3-yl)-1,3,4-thiadiazol-2-yl)cyclohexyl)-6-((2-(2,6-dioxopiperidin-3-yl)-1,3-dioxoisoindolin-5-yl)amino)hexanamide], for which the pIC50 is 8.75 on IRAK4 [1] (Table 4) and 9.10 at IRAK4 [1] (Table 5, multiple runs). In addition, the Dmax amounted to 82% at IRAK4 [2] (setting [3]) and 101% at IRAK4 [2] (setting [4]). Besides, the DC50 is 47.5 nM on IRAK4 [2] (Table 4) and 14.3 nM on IRAK4 [2] (Table 5, multiple runs).
Take `CNc1cc(-c2ccc3cc(C#N)cnn23)ncc1-c1nnc([C@H]2CC[C@H](NC(=O)[C@H]3C[C@@H](OCCNc4cccc5c4C(=O)N(C4CCC(=O)NC4=O)C5=O)C3)CC2)s1` (stereo partly drawn) [Example 69, (1s,3S)—N-((1r,4R)-4-(5-(6-(3-cyanopyrrolo[1,2-b]pyridazin-7-yl)-4-(methylamino)pyridin-3-yl)-1,3,4-thiadiazol-2-yl)cyclohexyl)-3-(2-((2-(2,6-dioxopiperidin-3-yl)-1,3-dioxoisoindolin-4-yl)amino)ethoxy)cyclobutane-1-carboxamide]: the pIC50 at IRAK4 [1] (Table 4) was 9.09; at IRAK4 [1] (Table 5, multiple runs), 9.05. Further, the results for the Dmax at IRAK4 [2] (setting [3]) and at IRAK4 [2] (setting [4]) were 98% and 73%, respectively. Also, the 50% degradation concentration (DC50) is 12.6 nM on IRAK4 [2] (Table 4) and 6.71 nM on IRAK4 [2] (Table 5, multiple runs).
Consider `CNc1cc(-c2ccc3cc(C#N)cnn23)ncc1-c1nnc([C@H]2CC[C@H](NC(=O)CCOCCOCCOCCNc3cccc4c3C(=O)N(C3CCC(=O)NC3=O)C4=O)CC2)s1` (stereo partly drawn) [Example 70, N-((1r,4r)-4-(5-(6-(3-cyanopyrrolo[1,2-b]pyridazin-7-yl)-4-(methylamino)pyridin-3-yl)-1,3,4-thiadiazol-2-yl)cyclohexyl)-3-(2-(2-(2-((2-(2,6-dioxopiperidin-3-yl)-1,3-dioxoisoindolin-4-yl)amino)ethoxy)ethoxy)ethoxy)propenamide], for which the negative logarithm of the IC50 (pIC50) is 9.07 on IRAK4 [1] (Table 4) and 9.10 on IRAK4 [1] (Table 5, multiple runs). In addition, the Dmax at IRAK4 [2] (setting [3]) was 68%; at IRAK4 [2] (setting [4]), 100%. The DC50 on IRAK4 [2] (Table 4) amounted to 6.3 nM; on IRAK4 [2] (Table 5, multiple runs), 10.8 nM.
For `CNc1cc(-c2ccc3cc(C#N)cnn23)ncc1-c1nnc([C@H]2CC[C@H](NC(=O)CCOCCNc3cccc4c3C(=O)N(C3CCC(=O)NC3=O)C4=O)CC2)s1` (stereo partly drawn) [Example 71, N-((1r,4r)-4-(5-(6-(3-cyanopyrrolo[1,2-b]pyridazin-7-yl)-4-(methylamino)pyridin-3-yl)-1,3,4-thiadiazol-2-yl)cyclohexyl)-3-(2-((2-(2,6-dioxopiperidin-3-yl)-1,3-dioxoisoindolin-4-yl)amino)ethoxy)propanamide], the pIC50 is 9.11 on IRAK4 [1] (Table 4) and 9.10 on IRAK4 [1] (Table 5, multiple runs). The Dmax was 93% on IRAK4 [2] (setting [3]) and 52% at IRAK4 [2] (setting [4]). For the same compound, the DC50 on IRAK4 [2] (Table 4) was found to be 12.9 nM; at IRAK4 [2] (Table 5, multiple runs), 5.87 nM.
Take `CC(C)Nc1cc(-c2ccc3cc(C#N)cnn23)ncc1-c1nnc(N2CCN(CC3CCN(c4ccc5c(=O)n(C6CCC(=O)NC6=O)ccc5c4)CC3)CC2)s1` (stereo not drawn) [Example 72, 7-(5-(5-(4-((1-(2-(2,6-dioxopiperidin-3-yl)-1-oxo-1,2-dihydroisoquinolin-6-yl)piperidin-4-yl)methyl)piperazin-1-yl)-1,3,4-thiadiazol-2-yl)-4-(isopropylamino)pyridin-2-yl)pyrrolo[1,2-b]pyridazine-3-carbonitrile]: the pIC50 on IRAK4 [1] (Table 5, multiple runs) is 8.51. Also, the Dmax on IRAK4 [2] (setting [4]) stood at 94%. For the same compound, the DC50 on IRAK4 [2] (Table 5, multiple runs) was 189 nM.
Regarding `CC(C)Nc1cc(-c2ccc3cc(C#N)cnn23)ncc1-c1nnc(N2CCN(C(=O)C3CCN(C(=O)CNc4cccc5c4C(=O)N(C4CCC(=O)NC4=O)C5=O)CC3)CC2)s1` (stereo not drawn) [Example 73, 7-(5-(5-(4-(1-((2-(2,6-dioxopiperidin-3-yl)-1,3-dioxoisoindolin-4-yl)glycyl)piperidine-4-carbonyl)piperazin-1-yl)-1,3,4-thiadiazol-2-yl)-4-(isopropylamino)pyridin-2-yl)pyrrolo[1,2-b]pyridazine-3-carbonitrile], on IRAK4 [1] (Table 5, multiple runs), the pIC50 was 8.72. The Dmax on IRAK4 [2] (setting [4]) turned out to be 69%. For the same compound, the DC50 at IRAK4 [2] (Table 5, multiple runs) was 25.2 nM.
For `CC(C)Nc1cc(-c2ccc3cc(C#N)cnn23)ncc1-c1nnc(N2CCN(C3CCN(C(=O)CNc4cccc5c4C(=O)N(C4CCC(=O)NC4=O)C5=O)CC3)CC2)s1` (stereo not drawn) [Example 74, 7-(5-(5-(4-(1-((2-(2,6-dioxopiperidin-3-yl)-1,3-dioxoisoindolin-4-yl)glycyl)piperidin-4-yl)piperazin-1-yl)-1,3,4-thiadiazol-2-yl)-4-(isopropylamino)pyridin-2-yl)pyrrolo[1,2-b]pyridazine-3-carbonitrile] the same measures were 8.60, 82% and 28.9 nM.
As for `CC(C)Nc1cc(-c2ccc3cc(C#N)cnn23)ncc1-c1nnc(N2CCN(C3CCN(C(=O)Cc4ccc5c(c4)CN(C4CCC(=O)NC4=O)C5=O)CC3)CC2)s1` (stereo not drawn) [Example 75, 7-(5-(5-(4-(1-(2-(2-(2,6-dioxopiperidin-3-yl)-1-oxoisoindolin-5-yl)acetyl)piperidin-4-yl)piperazin-1-yl)-1,3,4-thiadiazol-2-yl)-4-(isopropylamino)pyridin-2-yl)pyrrolo[1,2-b]pyridazine-3-carbonitrile], the negative-log IC50 (pIC50) on IRAK4 [1] (Table 5, multiple runs) was 9.10. Also, the Dmax on IRAK4 [2] (setting [4]) came to 111%. Besides, the half-maximal degradation concentration (DC50) at IRAK4 [2] (Table 5, multiple runs) amounted to 8.59 nM.
The matching figures for `CC(C)Nc1cc(-c2ccc3cc(C#N)cnn23)ncc1-c1nnc(N2CCN(C3CCN(C(=O)Cc4cccc5c4CN(C4CCC(=O)NC4=O)C5=O)CC3)CC2)s1` (stereo not drawn) [Example 76, 7-(5-(5-(4-(1-(2-(2-(2,6-dioxopiperidin-3-yl)-1-oxoisoindolin-4-yl)acetyl)piperidin-4-yl)piperazin-1-yl)-1,3,4-thiadiazol-2-yl)-4-(isopropylamino)pyridin-2-yl)pyrrolo[1,2-b]pyridazine-3-carbonitrile]: 9.10, 100% and 13.1 nM.
For the compound `CC(C)Nc1cc(-c2ccc3cc(C#N)cnn23)ncc1-c1nnc(N2CCN(C3CCN(C(=O)c4ccc5c(c4)C(=O)N(C4CCC(=O)NC4=O)C5)CC3)CC2)s1` (stereo not drawn) [Example 77, 7-(5-(5-(4-(1-(2-(2,6-dioxopiperidin-3-yl)-3-oxoisoindoline-5-carbonyl)piperidin-4-yl)piperazin-1-yl)-1,3,4-thiadiazol-2-yl)-4-(isopropylamino)pyridin-2-yl)pyrrolo[1,2-b]pyridazine-3-carbonitrile], the pIC50 on IRAK4 [1] (Table 5, multiple runs) is 9.30. At IRAK4 [2] (setting [4]), the Dmax was 114%. Further, the DC50 on IRAK4 [2] (Table 5, multiple runs) is 15.1 nM.
In the case of `Cc1ncsc1-c1ccc([C@H](C)NC(=O)[C@@H]2C[C@@H](O)CN2C(=O)[C@@H](NC(=O)CCOCCOCCOCCC(=O)N2CCN(c3nnc(-c4cnc(-c5ccc6cc(C#N)cnn56)cc4NC(C)C)s3)CC2)C(C)(C)C)cc1` [Example 78, (2S,4R)-1-((S)-2-(tert-butyl)-16-(4-(5-(6-(3-cyanopyrrolo[1,2-b]pyridazin-7-yl)-4-(isopropylamino)pyridin-3-yl)-1,3,4-thiadiazol-2-yl)piperazin-1-yl)-4,16-dioxo-7,10,13-trioxa-3-azahexadecanoyl)-4-hydroxy-N—((S)-1-(4-(4-methylthiazol-5-yl)phenyl)ethyl)pyrrolidine-2-carboxamide], the negative logarithm of the IC50 (pIC50) on IRAK4 [1] (Table 5, multiple runs) was 8.62. The Dmax at IRAK4 [2] (setting [4]) was determined as 74%. In addition, the DC50 at IRAK4 [2] (Table 5, multiple runs) came out at 332 nM.
The matching figures for `Cc1ncsc1-c1ccc(CNC(=O)[C@@H]2C[C@@H](O)CN2C(=O)[C@@H](NC(=O)C2(F)CC2)C(C)(C)C)c(OCCCC(=O)N2CCN(c3nnc(-c4cnc(-c5ccc6cc(C#N)cnn56)cc4NC(C)C)s3)CC2)c1` [Example 79, (2S,4R)—N-(2-(4-(4-(5-(6-(3-cyanopyrrolo[1,2-b]pyridazin-7-yl)-4-(isopropylamino)pyridin-3-yl)-1,3,4-thiadiazol-2-yl)piperazin-1-yl)-4-oxobutoxy)-4-(4-methylthiazol-5-yl)benzyl)-1-((S)-2-(1-fluorocyclopropane-1-carboxamido)-3,3-dimethylbutanoyl)-4-hydroxypyrrolidine-2-carboxamide]: 8.01, 113% and 137 nM.
